These results are taken from publication PMC3241989, “ADP Regulates SNF1, the Saccharomyces cerevisiae Homolog of AMP-Activated Protein Kinase” (Cell Metabolism, 2011).

Bounds are passed on as bounds.

In assay [1] the target is T1, regulatory fragment of SNF1 (Snf4(1-322)Sip2(304-415)Snf1(457-633)) (Saccharomyces cerevisiae, UniProt P12904).
T1 construct: C-terminal domains of Snf1 and Sip2 with full-length Snf4 (1-322; b14 prints 1-332), tricistronic E. coli expression, His-tag removed with PreScission protease; with Carbon catabolite-derepressing protein kinase; SNF1 protein kinase subunit beta-2
T1 sequence (P12904 1-322): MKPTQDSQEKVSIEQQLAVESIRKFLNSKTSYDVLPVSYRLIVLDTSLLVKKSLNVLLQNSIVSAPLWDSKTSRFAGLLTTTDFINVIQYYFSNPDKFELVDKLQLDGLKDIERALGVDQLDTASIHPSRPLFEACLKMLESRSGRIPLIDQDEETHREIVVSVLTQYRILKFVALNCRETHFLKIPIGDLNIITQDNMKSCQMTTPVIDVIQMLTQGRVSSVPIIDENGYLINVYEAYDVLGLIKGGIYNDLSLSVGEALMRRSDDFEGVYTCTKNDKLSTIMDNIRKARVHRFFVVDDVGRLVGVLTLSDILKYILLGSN
T1 sequence (P34164 304-415 partner): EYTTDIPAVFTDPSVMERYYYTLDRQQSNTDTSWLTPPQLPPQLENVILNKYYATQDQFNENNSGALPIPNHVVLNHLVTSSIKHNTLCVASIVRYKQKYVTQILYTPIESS
T1 sequence (P06782 457-633 partner): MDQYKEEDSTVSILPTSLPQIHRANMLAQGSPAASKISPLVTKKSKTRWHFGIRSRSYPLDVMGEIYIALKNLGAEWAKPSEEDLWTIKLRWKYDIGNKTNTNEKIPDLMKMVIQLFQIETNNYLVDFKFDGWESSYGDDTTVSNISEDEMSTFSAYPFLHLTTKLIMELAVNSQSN
In words: X-ray crystallography, crystal soak. The assay is classed as binding. The following applies: site 4 of Snf4.

Assay [2] has as its target T2, SNF1 complex (Snf1(1-633)Gal83(1-417)Snf4(1-322)) (Saccharomyces cerevisiae, UniProt P12904).
T2 construct: full-length heterotrimer, His-tagged, expressed in E. coli, nickel-Sepharose; phosphorylated on Snf1 Thr210 by CaMKKbeta; with Carbon catabolite-derepressing protein kinase; SNF1 protein kinase subunit beta-3
T2 sequence (P12904 1-322): T1 sequence (P12904 1-322)
T2 sequence (P06782 1-633 partner): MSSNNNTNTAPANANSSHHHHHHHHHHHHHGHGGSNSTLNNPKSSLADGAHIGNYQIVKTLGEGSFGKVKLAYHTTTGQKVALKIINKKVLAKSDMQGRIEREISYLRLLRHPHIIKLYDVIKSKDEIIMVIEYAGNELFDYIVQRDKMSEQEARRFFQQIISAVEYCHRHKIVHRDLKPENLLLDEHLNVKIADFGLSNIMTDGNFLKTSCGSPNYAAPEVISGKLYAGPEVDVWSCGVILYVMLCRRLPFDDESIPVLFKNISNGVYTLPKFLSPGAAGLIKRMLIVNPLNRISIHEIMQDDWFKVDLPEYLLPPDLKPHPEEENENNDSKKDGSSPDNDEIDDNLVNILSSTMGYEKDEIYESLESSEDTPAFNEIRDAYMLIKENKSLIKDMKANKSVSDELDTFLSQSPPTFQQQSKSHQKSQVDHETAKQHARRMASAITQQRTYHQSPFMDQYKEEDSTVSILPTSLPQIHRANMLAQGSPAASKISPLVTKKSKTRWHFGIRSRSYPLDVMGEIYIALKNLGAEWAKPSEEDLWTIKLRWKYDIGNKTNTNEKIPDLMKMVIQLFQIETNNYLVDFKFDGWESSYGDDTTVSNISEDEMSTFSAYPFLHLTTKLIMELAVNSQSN
T2 sequence (Q04739 1-417 partner): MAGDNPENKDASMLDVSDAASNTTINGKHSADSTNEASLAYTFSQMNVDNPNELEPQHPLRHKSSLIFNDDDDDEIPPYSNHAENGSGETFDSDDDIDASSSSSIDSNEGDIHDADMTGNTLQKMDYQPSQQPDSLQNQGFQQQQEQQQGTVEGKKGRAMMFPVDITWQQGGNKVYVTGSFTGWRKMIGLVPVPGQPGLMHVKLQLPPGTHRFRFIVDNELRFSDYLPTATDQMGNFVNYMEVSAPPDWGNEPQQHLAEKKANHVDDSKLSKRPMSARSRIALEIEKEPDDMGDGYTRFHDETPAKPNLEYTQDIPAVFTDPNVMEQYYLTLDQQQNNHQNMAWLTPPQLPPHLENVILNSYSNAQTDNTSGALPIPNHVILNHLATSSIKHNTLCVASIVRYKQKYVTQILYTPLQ
In words: fluorescence competition against NADH. The following applies: phosphorylated SNF1, 20°C, 50 mM Tris pH 8, 100 mM NaCl, 1 mM TCEP. The assay is classed as binding.

Assay [3] deals with T2, SNF1 complex (Snf1(1-633)Gal83(1-417)Snf4(1-322)). In words: protection of Snf1 phospho-Thr210 against dephosphorylation by PP2C (western blot). The format is biochemical. Conditions: read-out: half-maximal effect. On the technique in general: Immunoblotting shows a protein as a band on a membrane.
For assay [4] the target is unchanged. Put plainly: fluorescence titration of coumarin nucleotide with SNF1. The format is binding. Conditions: read-out: Kd,I.
Where [5] appears, read: no Mg, tight site, competitive with NADH, error is SD, read-out: Kd (μM) / Versus C-AXPs.

For the molecule `NC(=O)C1=CN([C@@H]2O[C@H](COP(=O)(O)OP(=O)(O)OC[C@H]3O[C@@H](n4cnc5c(N)ncnc54)[C@H](O)[C@@H]3O)[C@@H](O)[C@H]2O)C=CC1` [NADH], in assay [1], the “X-ray crystallography, crystal soak” value is “strong, well-resolved electron density for AMP, ADP, and NADH”.
Take `Nc1ncnc2c1ncn2[C@@H]1O[C@H](COP(=O)(O)O)[C@@H](O)[C@H]1O` [AMP]: in assay [1], the “X-ray crystallography, crystal soak” value is “strong, well-resolved electron density for AMP, ADP, and NADH”.
Take `NC(=O)c1ccc[n+]([C@@H]2O[C@H](COP(=O)(O)OP(=O)(O)OC[C@H]3O[C@@H](n4cnc5c(N)ncnc54)[C@H](O)[C@@H]3O)[C@@H](O)[C@H]2O)c1` [NAD^+]: in assay [2] (read-out: Kd), the Kd is over 250 µM.
As for `Nc1ncnc2c1ncn2[C@@H]1O[C@H](COP(=O)(O)OP(=O)(O)O)[C@@H](O)[C@H]1O` [ADP], the Kd in assay [2] (setting [5]) amounted to 72 µM. Also, the “X-ray crystallography, crystal soak” value in assay [1] is “strong, well-resolved electron density for AMP, ADP, and NADH”. Further, the EC50 in assay [3] was about 500 µM.
As to `Nc1ncnc2c1ncn2[C@@H]1O[C@H](COP(=O)(O)OP(=O)(O)OP(=O)(O)O)[C@@H](O)[C@H]1O` [ATP], in assay [2] (setting [5]), the Kd is 120 µM.
Consider `CCN(CC)c1ccc2cc(C(=O)N[C@H]3[C@@H](O)[C@H](n4cnc5c(N)ncnc54)O[C@@H]3COP(=O)(O)OP(=O)(O)O)c(=O)oc2c1` [C-ADP, 3′-(7-diethylaminocoumarin-3-carbonylamino)-3′-deoxyadenosine 5′ diphosphate], for which the Kd in assay [4] was determined as 9 µM.
